Data reported in patent US20130260025A1, “Group 2 Imidazolate Formulations for Direct Liquid Injection” (AIR PRODUCTS AND CHEMICALS, INC., priority 2012, published 2013).

Legend:
[1] = Solubility of strontium imidazolate adducts in cyclooctane
Experimental: Solubility was determined by taking a weighed amount of solvent at room temperature, incrementally adding metal complex with mixing until not more could be dissolved then reweighing the resultant solution to permit the weight percentage of metal complex dissolved to be calculated. A fixed volume of the solution was then weighed. […] The moles of metal complex is then divided by the volume of weighed solution in liters to yield the molarity of the solution.

[2] = Solubility of strontium imidazolate adducts in mesitylene; type: physicochemical
Text: A fixed volume of the solution was then weighed. […] […].

[3] = Thermogravimetric analysis (TGA)/differential scanning calorimetry (DSC); type: physicochemical
Experimental: Thermogravimetric analysis (TGA) of the complexes listed in Tables 1 and 2 were conducted whereby samples were suspended in a microbalance pan under a steady stream of nitrogen while being heated under a constant rate. Weight loss is measured as a function of temperature/time while a differential scanning calorimeter monitors exotherms (decomposition) or endotherms (phase change/melting or evaporative cooling).

[4] = saturated solution in cyclooctane, room temperature
[5] = saturated solution in mesitylene, room temperature

Row | SMILES | Molarity of strontium complex [1, 4] [M] | Wt % of strontium complex [1, 4] [Wt %] | Molarity of strontium complex [2, 5] [M] | Wt % of strontium complex [2, 5] [Wt %] | Molarity of strontium complex [1] [M] | Wt % of strontium complex [1] [Wt %] | Molarity of strontium complex [2] [M] | Wt % of strontium complex [2] [Wt %] | times more soluble in cyclooctane than parent complex [1] | times more soluble in mesitylene than parent complex [2] | TGA residual mass [3] [%] | temperature at which weight loss associated with loss of tetrahydrofuran significantly begins ([3]; TGA under nitrogen stream, constant heating rate, FIG. 7) [°C]
1 | CC(C)(C)c1nc(C(C)(C)C)c(C(C)(C)C)[n-]1.CC(C)(C)c1nc(C(C)(C)C)c(C(C)(C)C)[n-]1.COC(C)OC.[Sr+2] [Strontium bis(2,4,5-tri-tert-butylimidazolate)(1,1-dimethoxyethane)] | 0.03 | 2.1 | 0.13 | 9.0 |  |  |  |  |  |  |  | 
2 | CC(C)(C)c1nc(C(C)(C)C)c(C(C)(C)C)[n-]1.CC(C)(C)c1nc(C(C)(C)C)c(C(C)(C)C)[n-]1.COCC(C)OC.[Sr+2] [Strontium bis(2,4,5-tri-tert-butylimidazolate)(1,2-dimethoxypropane)] |  |  |  |  | 0.04 | 2.8 | 0.093 | 7.3 |  |  |  | 
3 | C1=CCOC1.CC(C)(C)c1nc(C(C)(C)C)c(C(C)(C)C)[n-]1.CC(C)(C)c1nc(C(C)(C)C)c(C(C)(C)C)[n-]1.[Sr+2] [Strontium bis(2,4,5-tri-tert-butylimidazolate)(2,5-dihydrofuran)] |  |  |  |  | 0.37 | 24 |  | 38 | 11-12 times | 9-13 times | 8.09 | 
4 | CC(C)(C)c1nc(C(C)(C)C)c(C(C)(C)C)[n-]1.CC(C)(C)c1nc(C(C)(C)C)c(C(C)(C)C)[n-]1.CC1CCOC1.[Sr+2] [Strontium bis(2,4,5-tri-tert-butylimidazolate)(3-methyltetrahydrofuran)] |  |  |  |  | 0.05 | 3.5 | 0.44 | 28.8 |  | 9-13 times |  | 
5 | CC(C)(C)c1nc(C(C)(C)C)c(C(C)(C)C)[n-]1.CC(C)(C)c1nc(C(C)(C)C)c(C(C)(C)C)[n-]1.CN(C)CCN(C)C.[Sr+2] [Strontium bis(2,4,5-tri-tert-butylimidazolate)(tetramethylethlenediamine)] | 0.02 | 1.8 | 0.041 | 3.3 |  |  |  |  |  |  |  | 
6 | C1CCOC1.CC(C)(C)c1nc(C(C)(C)C)c(C(C)(C)C)[n-]1.CC(C)(C)c1nc(C(C)(C)C)c(C(C)(C)C)[n-]1.[Sr+2] [Strontium bis(2,4,5-tri-tert-butylimidazolatee)(tetrahydrofuran)] | 0.35 | 23.6 | 0.6 | 28.2 |  |  |  |  |  |  |  | ≥ 100
